Reference: patent US11939320B2, “Modulators of the integrated stress pathway” (Calico Life Sciences LLC, priority 2017, dated 2024)

test system: HEK293T cells carrying the ATF4 luciferase reporter; experiment: ATF4-Luc assay (in vitro model of VWMD); type: cell-based; conditions: Homo sapiens, HEK-293T; HEK293T cells with ATF4 5'-UTR firefly luciferase reporter; 1 μg/mL tunicamycin; 7 hours; One Glo luminescence
Protocol: In order to test exemplary compounds of the invention in a cellular context, a stable VWMD cell line was first constructed. The ATF4 reporter was prepared by fusing the human full-length ATF4 5′-UTR (NCBI Accession No. BC022088.2) in front of the firefly luciferase (FLuc) coding sequence lacking the initiator methionine as described in Sidrauski et al (eLife 2013). The construct was used to produce recombinant retroviruses using standard methods and the resulting viral supernatant was used to transduce HEK293T cells, which were then subsequently selected with puromycin to generate a stable cell line.
HEK293T cells carrying the ATF4 luciferase reporter were plated on polylysine coated 384-well plates (Greiner Bio-one) at 30,000 cells per well. Cells were treated the next day with 1 μg/mL tunicamycin and 200 nM of a compound of Formula (I) for 7 hours. Luminescence was measured using One Glo (Promega) as specified by the manufacturer. Cells were maintained in DMEM with L-glutamine supplemented with 10% heat-inactivated FBS (Gibco) and Antibiotic-Antimycotic solution (Gibco).
Table 2 below summarizes the EC50 data obtained using the ATF4-Luc assay for exemplary compounds of the invention.

Row | Compound | EC50 [nM]
1 | Cc1ccc(CNC(=O)[C@H]2CC[C@H](NC(=O)COc3ccc(Cl)c(Cl)c3)CC2)nc1 [Compound 101, (1r,4r)-4-[2-(3,4-dichlorophenoxy)acetamido]-N-[(5-methylpyridin-2-yl)methyl]cyclohexane-1-carboxamide] | > 2000
2 | O=C(COc1ccc(Cl)c(F)c1)N[C@@H]1CC[C@@H](C(=O)NCCc2ccc(Cl)cc2)OC1 [Compound 146, (2S,5R)-5-[2-(4-chloro-3-fluorophenoxy)acetamido]-N-[2-(4-chlorophenyl)ethyl]oxane-2-carboxamide] | 50 to 250
3 | O=C(COc1ccc(Cl)c(Cl)c1)N[C@@H]1CC[C@@H](C(=O)NCc2ccc(C(F)(F)F)cn2)OC1 [Compound 174, (2S,5R)-5-[2-(3,4-dichlorophenoxy)acetamido]-N-{[5-(trifluoromethyl)pyridin-2-yl]methyl}oxane-2-carboxamide] | 10 to 50
4 | COc1ccc(CNC(=O)[C@H]2CC[C@H](NC(=O)COc3ccc(Cl)c(Cl)c3)CC2)cn1 [Compound 105, (1r,4r)-4-[2-(3,4-dichlorophenoxy)acetamido]-N-[(6-methoxypyridin-3-yl)methyl]cyclohexane-1-carboxamide] | > 2000
5 | O=C(COc1ccc(Cl)c(F)c1)N[C@H]1CC[C@H](C(=O)NCc2ccc(OC(F)F)cn2)CC1 [Compound 107, (1r,4r)-4-[2-(4-chloro-3-fluorophenoxy)acetamido]-N-{[5-(difluoromethoxy)pyridin-2-yl]methyl}cyclohexane-1-carboxamide] | 10 to 50
6 | O=C(COc1ccc(Cl)c(F)c1)N[C@H]1CC[C@H](C(=O)NCc2nc3cc(Cl)ccc3[nH]2)CC1 [Compound 150, (1r,4r)-N-[(5-chloro-1H-benzimidazol-2-yl)methyl]-4-[2-(4-chloro-3-fluorophenoxy)acetamido]cyclohexane-1-carboxamide] | 10 to 50
7 | O=C(COc1ccc(Cl)c(F)c1)N[C@H]1CC[C@H](C(=O)Nc2ccc(OC(F)(F)F)nc2)CC1 [Compound 177, (1r,4r)-4-[2-(4-chloro-3-fluorophenoxy)acetamido]-N-[6-(trifluoromethoxy)pyridin-3-yl]cyclohexane-1-carboxamide] | < 10
8 | O=C(COc1ccc(Cl)c(F)c1)N[C@@H]1CC[C@@H](C(=O)N2CCC(c3ccc(Cl)cc3)C2)OC1 (stereo partly drawn) [Compound 143, 2-(4-chloro-3-fluorophenoxy)-N-{(3R,6S)-6-[3-(4-chlorophenyl)pyrrolidine-1-carbonyl]oxan-3-yl}acetamide] | 500 to 2000
9 | O=C(COc1ccc(Cl)c(F)c1)N[C@H]1CC[C@H](C(=O)NCc2ccc(Cl)c(F)c2)CC1 [Compound 112, (1r,4r)-4-[2-(4-chloro-3-fluorophenoxy)acetamido]-N-[(4-chloro-3-fluorophenyl)methyl]cyclohexane-1-carboxamide] | < 10
10 | O=C(COc1ccc(Cl)c(F)c1)N[C@H]1CC[C@H](C(=O)NCc2cc(OC3CCC3)ccn2)CC1 [Compound 170, (1r,4r)-4-[2-(4-chloro-3-fluorophenoxy)acetamido]-N-{[4-(cyclobutyloxy)pyridin-2-yl]methyl}cyclohexane-1-carboxamide] | > 2000
11 | O=C(COc1ccc(Cl)c(F)c1)N[C@H]1CC[C@@H](C(=O)N2CC(c3ccc(Cl)cc3)C2)CC1 [Compound 133, 2-(4-chloro-3-fluorophenoxy)-N-{(1s,4s)-4-[3-(4-chlorophenyl)azetidine-1-carbonyl]cyclohexyl}acetamide] | > 2000
12 | O=C(COc1ccc2c(c1)OC(F)(F)O2)N[C@H]1CC[C@H](C(=O)NCc2nc3cc(Cl)ccc3[nH]2)CC1 [Compound 148, (1r,4r)-N-[(5-chloro-1H-benzimidazol-2-yl)methyl]-4-{2-[(2,2-difluoro-2H-1,3-benzodioxol-5-yl)oxy]acetamido}cyclohexane-1-carboxamide] | 50 to 250
13 | O=C(COc1ccc(Cl)c(F)c1)N[C@H]1CC[C@H](C(=O)N2CCC[C@H]2c2cc(F)ccc2F)CC1 [Compound 114, 2-(4-chloro-3-fluorophenoxy)-N-{(1S,4r)-4-[(2S)-2-(2,5-difluorophenyl)pyrrolidine-1-carbonyl]cyclohexyl}acetamide] | > 2000
14 | O=C(COc1ccc(Cl)c(F)c1)N[C@H]1C[C@H](C(=O)NCc2ccc(Cl)cn2)C1 [Compound 121, (1r,3r)-3-[2-(4-chloro-3-fluorophenoxy)acetamido]-N-[(5-chloropyridin-2-yl)methyl]cyclobutane-1-carboxamide] | 250 to 500
15 | O=C(COc1ccc(Cl)c(F)c1)N[C@H]1CC[C@H](C(=O)NCc2cnco2)CC1 [Compound 118, (1r,4r)-4-[2-(4-chloro-3-fluorophenoxy)acetamido]-N-[(1,3-oxazol-5-yl)methyl]cyclohexane-1-carboxamide] | > 2000
16 | O=C(COc1ccc(Cl)c(F)c1)N[C@H]1CC[C@H](C(=O)NCc2ccc(Cl)cn2)CC1 [Compound 176, (1r,4r)-4-[2-(4-chloro-3-fluorophenoxy)acetamido]-N-[(5-chloropyridin-2-yl)methyl]cyclohexane-1-carboxamide] | > 2000
17 | O=C(COc1ccc(Cl)c(F)c1)N[C@H]1C[C@H](C(=O)NCc2ccc(C(F)(F)F)cn2)C1 [Compound 122, (1r,3r)-3-[2-(4-chloro-3-fluorophenoxy)acetamido]-N-{[5-(trifluoromethyl)pyridin-2-yl]methyl}cyclobutane-1-carboxamide] | 500 to 2000
18 | O=C(COc1ccc(Cl)c(F)c1)N[C@H]1CC[C@H](C(=O)NCc2cc(C(F)(F)F)ccn2)CC1 [Compound 171, (1r,4r)-4-[2-(4-chloro-3-fluorophenoxy)acetamido]-N-{[4-(trifluoromethyl)pyridin-2-yl]methyl}cyclohexane-1-carboxamide] | 50 to 250
19 | O=C(COc1ccc(F)c(F)c1)N[C@H]1CC[C@H](C(=O)NCc2nc3cc(Cl)ccc3[nH]2)CC1 [Compound 149, (1r,4r)-N-[(5-chloro-1H-benzimidazol-2-yl)methyl]-4-[2-(3,4-difluorophenoxy)acetamido]cyclohexane-1-carboxamide] | 50 to 250
20 | O=C(COc1ccc(Cl)c(F)c1)N[C@@H]1CC[C@@H](C(=O)NCc2nc(C(F)(F)F)c[nH]2)OC1 [Compound 135, (2S,5R)-5-[2-(4-chloro-3-fluorophenoxy)acetamido]-N-{[4-(trifluoromethyl)-1H-imidazol-2-yl]methyl}oxane-2-carboxamide] | 50 to 250
21 | O=C(COc1ccc(Cl)c(Cl)c1)N[C@H]1CC[C@H](C(=O)NCc2ccc(Cl)cn2)CC1 [Compound 175, (1r,4r)-N-[(5-chloropyridin-2-yl)methyl]-4-[2-(3,4-dichlorophenoxy)acetamido]cyclohexane-1-carboxamide] | 50 to 250
22 | O=C(COc1ccc(Cl)c(F)c1)N[C@@H]1CC[C@@H](C(=O)NCc2ccc3c(c2)OC(F)(F)O3)OC1 [Compound 167, (2S,5R)-5-[2-(4-chloro-3-fluorophenoxy)acetamido]-N-[(2,2-difluoro-2H-1,3-benzodioxol-5-yl)methyl]oxane-2-carboxamide] | 50 to 250
23 | O=C(COc1ccc(Cl)c(F)c1)N[C@H]1CC[C@H](C(=O)NCc2ccc(OC(F)F)nc2)CC1 [Compound 116, (1r,4r)-4-[2-(4-chloro-3-fluorophenoxy)acetamido]-N-{[6-(difluoromethoxy)pyridin-3-yl]methyl}cyclohexane-1-carboxamide] | 50 to 250
24 | O=C(NCc1ccc(C(F)(F)F)cn1)[C@@H]1CC[C@@H](NC(=O)[C@@H]2CNc3cc(Cl)ccc3O2)CO1 (single isomer, unassigned) [Compound 161] | 250 to 500
25 | NC(=O)c1ccc(CNC(=O)[C@H]2CC[C@H](NC(=O)COc3ccc(Cl)c(F)c3)CC2)nc1 [Compound 172, 6-[({(1r,4r)-4-[2-(4-chloro-3-fluorophenoxy)acetamido]cyclohexane-1-carbonyl}amino)methyl]pyridine-3-carboxamide] | > 2000
26 | O=C(COc1ccc(Cl)c(F)c1)N[C@H]1C[C@H](C(=O)N2CC(c3ccc(Cl)cc3)C2)C1 [Compound 123, 2-(4-chloro-3-fluorophenoxy)-N-{(1r,3r)-3-[3-(4-chlorophenyl)azetidine-1-carbonyl]cyclobutyl}acetamide] | 250 to 500
27 | O=C(COc1ccc(Cl)c(Cl)c1)N[C@H]1CC[C@H](C(=O)NCc2nc3cc(F)c(F)cc3[nH]2)CC1 [Compound 152, (1r,4r)-4-[2-(3,4-dichlorophenoxy)acetamido]-N-[(5,6-difluoro-1H-benzimidazol-2-yl)methyl]cyclohexane-1-carboxamide] | > 2000
28 | O=C(COc1ccc(Cl)c(F)c1)N[C@H]1CC[C@H](C(=O)NCc2ccc(C(F)F)cn2)CC1 [Compound 187, (1r,4r)-4-[2-(4-chloro-3-fluorophenoxy)acetamido]-N-{[5-(difluoromethyl)pyridin-2-yl]methyl}cyclohexane-1-carboxamide] | 10 to 50
29 | O=C(COc1ccc(Cl)c(F)c1)N[C@@H]1CC[C@@H](C(=O)N2CC(c3ccc(C(F)(F)F)cc3)C2)OC1 [Compound 134, 2-(4-chloro-3-fluorophenoxy)-N-[(3R,6S)-6-{3-[4-(trifluoromethyl)phenyl]azetidine-1-carbonyl}oxan-3-yl]acetamide] | < 10
30 | O=C(COc1ccc(Cl)c(F)c1)N[C@H]1CC[C@H](C(=O)NCc2ncco2)CC1 [Compound 117, (1r,4r)-4-[2-(4-chloro-3-fluorophenoxy)acetamido]-N-[(1,3-oxazol-2-yl)methyl]cyclohexane-1-carboxamide] | > 2000
